ChEMBL document CHEMBL2321716, “Exploring a new frontier in cancer treatment: targeting the ubiquitin and ubiquitin-like activating enzymes” (J Med Chem, 2013)

What was measured:
[1] = target: T1, SUMO-activating enzyme subunit 1 (Homo sapiens, UniProt Q9UBE0); test: Inhibition of SAE (unknown origin) in presence of ATP
T1 sequence (Q9UBE0 whole entry): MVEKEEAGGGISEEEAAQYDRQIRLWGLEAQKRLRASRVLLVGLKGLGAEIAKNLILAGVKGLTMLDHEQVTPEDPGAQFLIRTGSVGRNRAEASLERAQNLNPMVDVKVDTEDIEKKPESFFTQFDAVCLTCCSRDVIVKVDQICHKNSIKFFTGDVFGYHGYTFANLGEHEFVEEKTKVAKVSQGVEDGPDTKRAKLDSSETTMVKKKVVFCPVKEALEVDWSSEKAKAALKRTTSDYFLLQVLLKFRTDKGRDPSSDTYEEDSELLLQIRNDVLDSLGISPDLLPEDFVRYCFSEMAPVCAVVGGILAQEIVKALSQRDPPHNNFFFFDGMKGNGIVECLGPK

[2] = Competitive inhibition of human UAE-catalyzed ATP-PPi exchange reaction expressed in Sf9 insect cells after 60 mins in presence of 1 mM ATP
[3] = Inhibition of UAE (unknown origin) in presence of ATP; design: species or system Homo sapiens
[4] = target: T2, Ubiquitin-like modifier-activating enzyme 6 (Homo sapiens, UniProt A0AVT1); test: Inhibition of UBA6 (unknown origin) in presence of ATP
T2 sequence (A0AVT1 whole entry): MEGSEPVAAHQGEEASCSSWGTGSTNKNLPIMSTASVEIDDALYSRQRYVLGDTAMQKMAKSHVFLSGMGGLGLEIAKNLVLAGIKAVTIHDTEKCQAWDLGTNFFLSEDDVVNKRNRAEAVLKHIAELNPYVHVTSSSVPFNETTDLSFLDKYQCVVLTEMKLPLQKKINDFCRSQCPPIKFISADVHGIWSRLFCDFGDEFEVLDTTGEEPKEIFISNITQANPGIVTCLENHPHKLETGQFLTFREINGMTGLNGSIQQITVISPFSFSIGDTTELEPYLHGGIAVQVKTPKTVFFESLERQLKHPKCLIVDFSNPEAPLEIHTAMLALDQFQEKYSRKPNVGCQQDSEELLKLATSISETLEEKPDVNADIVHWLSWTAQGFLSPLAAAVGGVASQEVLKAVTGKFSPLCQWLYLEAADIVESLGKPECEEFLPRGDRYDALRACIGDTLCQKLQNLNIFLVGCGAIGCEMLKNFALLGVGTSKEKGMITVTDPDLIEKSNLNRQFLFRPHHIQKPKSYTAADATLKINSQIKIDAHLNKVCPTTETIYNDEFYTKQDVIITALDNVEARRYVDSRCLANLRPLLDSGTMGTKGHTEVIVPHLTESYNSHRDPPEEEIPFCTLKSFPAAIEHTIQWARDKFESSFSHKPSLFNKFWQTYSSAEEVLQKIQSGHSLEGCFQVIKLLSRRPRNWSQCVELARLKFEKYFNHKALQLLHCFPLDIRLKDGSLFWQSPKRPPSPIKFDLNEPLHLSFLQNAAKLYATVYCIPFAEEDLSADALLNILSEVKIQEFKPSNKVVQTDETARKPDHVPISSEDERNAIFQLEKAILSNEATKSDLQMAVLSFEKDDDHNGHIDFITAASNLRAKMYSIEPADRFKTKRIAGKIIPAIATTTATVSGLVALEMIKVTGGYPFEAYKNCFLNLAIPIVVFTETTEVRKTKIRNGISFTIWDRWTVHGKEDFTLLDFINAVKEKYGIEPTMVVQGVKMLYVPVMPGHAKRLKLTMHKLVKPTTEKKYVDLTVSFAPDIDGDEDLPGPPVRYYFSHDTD

[5] = target: T3, Ubiquitin-like modifier-activating enzyme ATG7 (Homo sapiens, UniProt O95352); test: Inhibition of ATG7 (unknown origin) in presence of ATP
T3 sequence (O95352 whole entry): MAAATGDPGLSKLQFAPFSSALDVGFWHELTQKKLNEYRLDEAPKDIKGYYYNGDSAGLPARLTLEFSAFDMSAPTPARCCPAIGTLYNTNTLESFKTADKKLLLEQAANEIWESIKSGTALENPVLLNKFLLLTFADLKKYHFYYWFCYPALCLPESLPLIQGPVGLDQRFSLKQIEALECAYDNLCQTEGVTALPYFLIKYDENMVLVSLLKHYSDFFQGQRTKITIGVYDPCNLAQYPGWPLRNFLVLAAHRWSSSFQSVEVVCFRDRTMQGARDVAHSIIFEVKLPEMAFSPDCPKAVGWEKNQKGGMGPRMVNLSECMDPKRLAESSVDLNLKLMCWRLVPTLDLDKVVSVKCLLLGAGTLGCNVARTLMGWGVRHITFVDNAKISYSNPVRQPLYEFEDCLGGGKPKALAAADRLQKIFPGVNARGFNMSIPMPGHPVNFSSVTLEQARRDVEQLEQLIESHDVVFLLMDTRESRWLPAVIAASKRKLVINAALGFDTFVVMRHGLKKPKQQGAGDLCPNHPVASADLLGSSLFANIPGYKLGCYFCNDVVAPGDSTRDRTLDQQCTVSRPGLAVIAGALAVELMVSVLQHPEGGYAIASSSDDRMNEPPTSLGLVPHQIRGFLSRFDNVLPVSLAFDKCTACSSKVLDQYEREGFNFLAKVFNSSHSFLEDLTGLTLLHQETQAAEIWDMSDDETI

[6] = target: T4, Ubiquitin-like modifier-activating enzyme 7 (Homo sapiens, UniProt P41226); test: Inhibition of UBA7 (unknown origin) in presence of ATP
T4 sequence (P41226 whole entry): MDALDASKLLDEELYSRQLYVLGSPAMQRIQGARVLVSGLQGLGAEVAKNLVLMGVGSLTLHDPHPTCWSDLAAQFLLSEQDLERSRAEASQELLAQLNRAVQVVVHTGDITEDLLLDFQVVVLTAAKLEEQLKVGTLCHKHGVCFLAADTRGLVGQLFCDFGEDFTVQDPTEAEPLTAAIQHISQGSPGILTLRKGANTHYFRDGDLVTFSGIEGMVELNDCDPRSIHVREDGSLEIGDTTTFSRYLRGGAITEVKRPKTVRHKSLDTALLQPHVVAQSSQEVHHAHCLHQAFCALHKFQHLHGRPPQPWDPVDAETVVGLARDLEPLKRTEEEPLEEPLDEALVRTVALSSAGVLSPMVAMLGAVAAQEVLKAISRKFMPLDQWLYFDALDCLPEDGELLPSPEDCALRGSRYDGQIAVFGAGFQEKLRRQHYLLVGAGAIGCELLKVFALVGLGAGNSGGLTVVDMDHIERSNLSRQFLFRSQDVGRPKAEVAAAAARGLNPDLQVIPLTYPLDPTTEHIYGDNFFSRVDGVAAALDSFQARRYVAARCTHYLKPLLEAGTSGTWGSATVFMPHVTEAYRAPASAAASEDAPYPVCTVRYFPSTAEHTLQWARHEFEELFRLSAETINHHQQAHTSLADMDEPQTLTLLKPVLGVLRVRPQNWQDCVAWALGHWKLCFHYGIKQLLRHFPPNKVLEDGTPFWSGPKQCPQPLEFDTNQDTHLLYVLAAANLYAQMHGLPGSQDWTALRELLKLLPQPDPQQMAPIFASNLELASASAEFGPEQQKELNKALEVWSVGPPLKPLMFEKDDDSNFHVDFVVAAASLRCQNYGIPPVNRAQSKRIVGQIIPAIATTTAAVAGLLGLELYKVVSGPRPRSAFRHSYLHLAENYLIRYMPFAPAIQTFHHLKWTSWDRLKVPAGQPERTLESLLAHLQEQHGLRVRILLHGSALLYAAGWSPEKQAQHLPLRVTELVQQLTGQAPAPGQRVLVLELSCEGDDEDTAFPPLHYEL

[7] = Inhibition of human UAE-catalyzed E1-E2 transthiolation reaction expressed in Sf9 insect cells after 90 mins by TR-FRET assay
[8] = Competitive inhibition of human UAE-catalyzed ATP-PPi exchange reaction expressed in Sf9 insect cells after 60 mins in presence of 10 uM ATP
[9] = target: T5, NEDD8-activating enzyme E1 regulatory subunit (Homo sapiens, UniProt Q13564); test: Inhibition of NAE (unknown origin) assessed as decrease in NEDD8-Ubcl2 formation
T5 sequence (Q13564 whole entry): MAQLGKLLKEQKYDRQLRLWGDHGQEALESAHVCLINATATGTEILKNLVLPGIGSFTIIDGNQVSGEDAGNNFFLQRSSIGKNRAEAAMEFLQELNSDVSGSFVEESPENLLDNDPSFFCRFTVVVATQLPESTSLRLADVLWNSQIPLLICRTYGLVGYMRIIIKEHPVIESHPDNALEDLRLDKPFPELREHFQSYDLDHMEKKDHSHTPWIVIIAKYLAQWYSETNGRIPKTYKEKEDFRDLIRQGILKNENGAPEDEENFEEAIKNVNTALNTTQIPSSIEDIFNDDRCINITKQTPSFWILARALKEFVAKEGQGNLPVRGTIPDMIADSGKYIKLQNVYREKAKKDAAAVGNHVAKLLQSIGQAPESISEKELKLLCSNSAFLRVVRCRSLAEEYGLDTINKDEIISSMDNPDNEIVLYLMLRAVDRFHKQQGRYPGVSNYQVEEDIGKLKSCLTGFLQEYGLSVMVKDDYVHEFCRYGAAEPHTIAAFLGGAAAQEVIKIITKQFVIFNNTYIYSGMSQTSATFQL

[10] = target: T6, NEDD8-activating enzyme E1 catalytic subunit (Homo sapiens, UniProt Q8TBC4); test: Inhibition of NAE (unknown origin)-catalyzed transthiolation of NEDD8 from NAE to Ubc12
T6 sequence (Q8TBC4 whole entry): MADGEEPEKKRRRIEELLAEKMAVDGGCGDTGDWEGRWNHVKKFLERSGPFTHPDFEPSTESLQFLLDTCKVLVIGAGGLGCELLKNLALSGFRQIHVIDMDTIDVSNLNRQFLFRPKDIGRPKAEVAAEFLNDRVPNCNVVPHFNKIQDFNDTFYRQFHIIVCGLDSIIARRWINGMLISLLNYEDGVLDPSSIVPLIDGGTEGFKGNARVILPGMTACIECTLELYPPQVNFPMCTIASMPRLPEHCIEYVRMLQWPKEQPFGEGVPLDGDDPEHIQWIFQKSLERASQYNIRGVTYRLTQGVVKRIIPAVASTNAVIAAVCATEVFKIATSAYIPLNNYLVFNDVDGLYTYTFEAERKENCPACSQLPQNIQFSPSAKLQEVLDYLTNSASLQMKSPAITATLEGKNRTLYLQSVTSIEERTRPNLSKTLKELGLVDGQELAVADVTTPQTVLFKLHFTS

[11] = target: T6, NEDD8-activating enzyme E1 catalytic subunit; test: Inhibition of NAE (unknown origin)-catalyzed NEDD8-Ubcl2 intermediate formation by densitometric analysis
Caco-2 = test: Cytotoxicity against human Caco2 cells by MTT assay; format: functional, cell-based
MCF7 = test: Cytotoxicity against human MCF7 cells after 48 hrs by WST8 assay; format: functional, cell-based; details: MCF7, 48 h
[12] = Inhibition of recombinant yeast UAE-catalyzed UAE-Ub intermediate formation after 15 mins by densitometric analysis; design: species or system Saccharomyces cerevisiae
[13] = target: T1, SUMO-activating enzyme subunit 1; test: Inhibition of recombinant SAE1(unknown origin)-mediated SUMOylation of RanGAP1-C2
[14] = Inhibition of FLAG-tagged human recombinant UAE-catalyzed UAE-Ub thioester intermediate formation immunoblotting analysis
[15] = target: T1, SUMO-activating enzyme subunit 1; test: Inhibition of recombinant His-tagged SAE1(unknown origin)-mediated SUMOylation of RanGAP1-C2 by immunoblotting analysis
[16] = Inhibition of N-terminal GST-tagged human UAE-catalyzed UAE-Ub thioester intermediate formation expressed in HI5 insect cells after 15 mins by SDS-PAGE analysis
[17] = target: T1, SUMO-activating enzyme subunit 1; test: Inhibition of human SAE by fluorescence assay

NS(=O)(=O)OC[C@H]1O[C@@H](n2cnc3c(N[C@H]4CCc5ccccc54)ncnc32)[C@H](O)[C@@H]1O
IC50 [1]: 6.4 µM | IC50 [2]: 5 µM | IC50 [3]: 5.2 µM | IC50 [4]: 0.92 µM | IC50 [5]: > 100 µM | IC50 [6]: 4 µM | IC50 [7]: 0.0014 µM | IC50 [8]: 0.0102 µM

O=c1cc(-c2ccc(O)cc2)oc2cc(O)c(-c3c(O)cc4oc(-c5ccc(O)cc5)cc(=O)c4c3O)c(O)c12
IC50 [9]: 5 µM | IC50 [10]: 20 µM

O=C(O)CNC(=O)CNC(=O)COc1ccc2nc3n(c(=O)c2c1)CCC3
IC50 [11]: 0.8 µM | IC50 (Caco-2): 10 µM

C/C=C/[C@]12C(=O)[C@H]3O[C@H]3[C@H](O)[C@H]1[C@H]1C(=C[C@@H]2C)C(=O)[C@H]2O[C@H]2[C@@H]1O
IC50 (MCF7): 5.4 µM | IC50 [12]: 9.4 µM

CCCC/C=C/[C@]12C(=O)[C@H]3O[C@H]3[C@H](O)[C@H]1[C@H]1C(=C[C@@H]2CCCC)C(=O)[C@H]2O[C@H]2[C@@H]1O
IC50 (MCF7): 1 µM | IC50 [12]: 3.5 µM

CCCCCCCC/C=C/[C@]12C(=O)[C@H]3O[C@H]3[C@H](O)[C@H]1[C@H]1C(=C[C@@H]2CCCCCCCC)C(=O)[C@H]2O[C@H]2[C@@H]1O
IC50 (MCF7): 3.6 µM | IC50 [12]: 90 µM

CCCCCCCCCCCCCCCc1cccc(O)c1C(=O)O [ANACARDIC ACID]
IC50 [13]: 2.2 µM

CCCCCC/C=C\CCCCCCCc1cccc(O)c1C(=O)O [GINGKOLIC ACID]
IC50 [13]: 3 µM

C[C@@H](CC(=O)NC(=O)c1coc(/C=C/CCCCCCCCC(=O)O)cc1=O)C(=O)O [HIMEIC ACID A]
IC50 [14]: 50 µM

C[C@@H]1O[C@@H](O[C@H]2[C@H](O)C[C@H](c3ccc4c(c3O)C(=O)C3=C(C4=O)[C@@]4(O[C@H]5CC[C@H](O)[C@H](C)O5)C(=O)C[C@](C)(O)C[C@@]4(O)C=C3)O[C@@H]2C)CC[C@@H]1O[C@H]1C[C@@H](O)[C@H](O)[C@@H](C)O1 [KERRIAMYCIN B]
IC50 [15]: 11.7 µM

CCCCCCCC(=O)SCC/C=C/[C@@H]1CC(=O)NCc2nc(cs2)C2=N[C@@](C)(CS2)C(=O)N[C@@H](C(C)C)C(=O)O1 [LARGAZOLE]
IC50 [16]: 29 µM | IC50 [17]: 450 µM
